Patent publication US20240109868A1, “EP300/CBP MODULATOR, PREPARATION METHOD THEREFOR AND USE THEREOF” (Miracure Biotechnology Limited, priority 2022, published 2024)

What was measured:
[1] = target: T1, CBP bromodomain (Homo sapiens, UniProt Q92793); experiment: CBP AlphaLISA assay kit (CBP bromodomain binding to acetylated histone substrate); settings: read-out: CBP ALPHA IC50
T1 construct: purchased
Description: The biochemical activity of the CBP inhibitors was determined using the CBP AlphaLISA® assay kit. The assay is based on the binding of the CBP bromodomain to the acetylated histone substrate. The compounds were incubated with CBP and the biotinylated substrate for 30 min. Then acceptor beads were added, followed by 15 min of incubation, and donor beads were added, followed by 15 min of incubation. Then the alpha counts were read, the data were analyzed using Prism 7.0, and the IC50 values were calculated. The values are shown as mean f SEM (N=2).

[2] = tested on: vCap Cell; experiment: vCap cell growth inhibition, CellTiter-Glo, 72 h; type: cell-based; settings: vCap cells, 72 h culture
How it was run: (§1)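 Cells seeded at 5×10^3/well overnight in RPMI-1640/10% FBS, then exposed to compound (0.5% DMSO final) for 72 h at 37 °C.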

[3] = tested on: 22Rv1 Cell; experiment: 22RV1 cell growth inhibition, CellTiter-Glo, 72 h; type: cell-based; settings: 22RV1 cells, 72 h culture
How it was run: as §1

[4] = target: T2, EP300 (Homo sapiens, UniProt Q09472); experiment: Ep300 AlphaLISA assay kit; type: biochemical; settings: read-out: EP300 ALPHA IC50
T2 construct: purchased
T2 sequence (Q09472 whole entry): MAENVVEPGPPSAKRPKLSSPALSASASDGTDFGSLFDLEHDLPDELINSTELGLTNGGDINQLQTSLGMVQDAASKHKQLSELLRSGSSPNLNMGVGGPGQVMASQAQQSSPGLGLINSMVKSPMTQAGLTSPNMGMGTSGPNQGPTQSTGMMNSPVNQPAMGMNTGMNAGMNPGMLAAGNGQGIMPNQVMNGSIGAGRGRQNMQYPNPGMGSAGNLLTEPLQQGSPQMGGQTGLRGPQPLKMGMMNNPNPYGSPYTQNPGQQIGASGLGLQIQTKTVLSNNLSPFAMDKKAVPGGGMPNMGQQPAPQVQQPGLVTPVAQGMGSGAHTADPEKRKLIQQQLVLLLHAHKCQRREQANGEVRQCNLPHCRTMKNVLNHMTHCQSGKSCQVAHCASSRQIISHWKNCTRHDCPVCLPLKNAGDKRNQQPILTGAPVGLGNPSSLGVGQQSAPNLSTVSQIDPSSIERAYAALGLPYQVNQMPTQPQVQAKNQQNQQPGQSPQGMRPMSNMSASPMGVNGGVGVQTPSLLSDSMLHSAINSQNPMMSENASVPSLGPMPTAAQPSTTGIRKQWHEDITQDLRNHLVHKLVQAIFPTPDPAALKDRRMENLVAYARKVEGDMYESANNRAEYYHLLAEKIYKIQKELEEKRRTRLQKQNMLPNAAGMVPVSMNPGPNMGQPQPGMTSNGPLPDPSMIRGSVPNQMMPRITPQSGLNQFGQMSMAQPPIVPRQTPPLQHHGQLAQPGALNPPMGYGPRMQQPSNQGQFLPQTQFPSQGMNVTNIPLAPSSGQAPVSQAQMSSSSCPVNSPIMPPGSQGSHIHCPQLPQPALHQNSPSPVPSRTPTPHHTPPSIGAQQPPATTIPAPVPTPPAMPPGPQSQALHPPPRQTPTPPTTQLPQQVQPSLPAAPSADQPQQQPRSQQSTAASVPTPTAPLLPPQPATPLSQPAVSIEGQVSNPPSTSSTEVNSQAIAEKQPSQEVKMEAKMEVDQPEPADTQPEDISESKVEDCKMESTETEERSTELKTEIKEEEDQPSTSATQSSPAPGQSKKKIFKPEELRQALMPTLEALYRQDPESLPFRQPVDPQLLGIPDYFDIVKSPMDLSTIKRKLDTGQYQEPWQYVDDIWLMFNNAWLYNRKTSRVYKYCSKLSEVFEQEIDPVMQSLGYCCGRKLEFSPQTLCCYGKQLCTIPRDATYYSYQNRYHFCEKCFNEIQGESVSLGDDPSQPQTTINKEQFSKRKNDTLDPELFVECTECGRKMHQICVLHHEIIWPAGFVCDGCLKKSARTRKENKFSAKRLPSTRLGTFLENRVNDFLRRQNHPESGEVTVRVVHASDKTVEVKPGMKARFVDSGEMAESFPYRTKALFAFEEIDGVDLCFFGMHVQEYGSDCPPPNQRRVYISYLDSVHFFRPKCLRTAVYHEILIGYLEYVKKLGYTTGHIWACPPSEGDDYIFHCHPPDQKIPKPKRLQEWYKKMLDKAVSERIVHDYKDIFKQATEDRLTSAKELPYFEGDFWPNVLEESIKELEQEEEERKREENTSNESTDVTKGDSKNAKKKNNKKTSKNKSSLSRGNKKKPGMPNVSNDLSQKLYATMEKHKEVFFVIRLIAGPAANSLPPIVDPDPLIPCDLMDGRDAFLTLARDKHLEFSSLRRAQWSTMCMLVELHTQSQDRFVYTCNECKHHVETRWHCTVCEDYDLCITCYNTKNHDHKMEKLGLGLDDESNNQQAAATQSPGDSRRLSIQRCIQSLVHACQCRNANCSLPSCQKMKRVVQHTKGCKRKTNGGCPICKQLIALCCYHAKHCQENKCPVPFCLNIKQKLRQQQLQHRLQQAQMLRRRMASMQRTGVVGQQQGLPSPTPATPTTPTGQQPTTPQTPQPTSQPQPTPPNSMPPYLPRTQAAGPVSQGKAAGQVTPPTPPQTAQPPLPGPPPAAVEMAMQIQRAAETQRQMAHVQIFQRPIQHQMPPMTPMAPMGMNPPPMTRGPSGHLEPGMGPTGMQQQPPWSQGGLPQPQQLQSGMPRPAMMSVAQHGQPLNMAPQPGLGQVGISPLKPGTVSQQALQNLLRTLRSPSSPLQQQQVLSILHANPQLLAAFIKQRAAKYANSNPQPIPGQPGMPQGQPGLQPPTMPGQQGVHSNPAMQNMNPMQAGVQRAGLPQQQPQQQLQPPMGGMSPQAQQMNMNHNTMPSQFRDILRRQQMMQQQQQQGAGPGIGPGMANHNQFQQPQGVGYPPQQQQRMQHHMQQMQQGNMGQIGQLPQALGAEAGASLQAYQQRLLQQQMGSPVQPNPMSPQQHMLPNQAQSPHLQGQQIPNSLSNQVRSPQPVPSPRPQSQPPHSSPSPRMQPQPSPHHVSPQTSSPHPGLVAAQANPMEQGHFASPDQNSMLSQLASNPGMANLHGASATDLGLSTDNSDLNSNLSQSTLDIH
Description: The biochemical activity of the EP300 modulators was determined using the Ep300 AlphaLISA® assay kit. The assay is based on the […] of residues in the peptide substrate by enzymatic transfer of acetyl groups from acetyl-CoA to particular lysine. The compounds were incubated with EP300 and then with an antibody combination of an antibody that specifically binds to an acetylated peptide and acceptor beads that bind to an acetylated peptide, followed by streptavidin-labeled donor beads. The alpha counts were read, the data were analyzed using Prism 7.0, and the IC50 values were calculated. The values are shown as mean f SEM (N=2).

T1 sequence (Q92793 1085-1192 limits assumed): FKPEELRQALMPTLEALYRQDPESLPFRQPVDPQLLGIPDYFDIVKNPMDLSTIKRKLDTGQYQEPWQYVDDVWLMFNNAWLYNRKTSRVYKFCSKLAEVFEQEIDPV

Row | IC50 [1] [µM] | IC50 ([2]; Homo sapiens, VCaP, 72 h) [µM] | IC50 ([3]; Homo sapiens, 22Rv1, 72 h) [µM] | IC50 [4] [µM] | IC50 [2] [µM] | IC50 [3] [µM] | Structure (SMILES)
1 | < 0.01 | < 1 | < 1 | – | – | – | COC1CCC(c2cc3c(c(N4CCCc5cc(-c6cnn(C)c6)c(C(F)F)cc54)c2)CN(C(C)=O)C3)CC1 (stereo not drawn) [Compound M001065]
2 | < 0.01 | > 1 | > 1 | < 0.01 | – | – | CNC(=O)N1CCc2nc(C3CCOCC3)nc(N3CCCc4cc(-c5cnn(C)c5)c(C(F)F)cc43)c2C1 [Compound M001245, 4-(7-(Difluoromethyl)-6-(1-methyl-1H-pyrazol-4-yl)-3,4-dihydroquinolin-1(2H)-yl)-N-methyl-2-(tetrahydro-2H-pyran-4-yl)-7,8-dihydropyrido[4,3-d]pyrimidine-6(5H)-carboxamide]
3 | < 0.01 | < 1 | > 1 | < 0.01 | – | – | CC(=O)N1Cc2cc(C3CCOCC3)cc(N3CCCc4cc(-c5cnn(C)c5)c(C(F)F)cc43)c2C1 [Compound M001067]
4 | > 0.01 | > 1 | > 1 | > 0.01 | – | – | CC(=O)N1Cc2nc(C3CCOCC3)nc(N3CCCc4cc(-c5cnn(C)c5)c(C(F)F)cc43)c2C1 [Compound M001243]
5 | < 0.01 | < 1 | < 1 | – | – | – | CC(=O)N1Cc2cc(C3CCC(=O)N(C)C3)cc(N3CCCc4cc(-c5cnn(C)c5)c(C(F)F)cc43)c2C1 (stereo not drawn) [Compound M001173]
6 | < 0.01 | < 1 | > 1 | – | – | – | CC(=O)N1Cc2cc(C3CCC(=O)NC3)cc(N3CCCc4cc(-c5cnn(C)c5)c(C(F)F)cc43)c2C1 (stereo not drawn) [Compound M001174]
7 | > 0.01 | > 1 | > 1 | > 0.01 | – | – | CNC(=O)N1Cc2nc(Cl)nc(N3CCCc4cc(-c5cnn(C)c5)c(C(F)F)cc43)c2C1 [Compound M001242]
8 | < 0.01 | < 1 | > 1 | – | – | – | CNC(=O)N1CCc2cc(C3CCN(C(=O)c4ccccc4)CC3)cc(N3CCCc4cc(-c5cnn(C)c5)c(C(F)F)cc43)c2C1 [Compound M001076]
9 | < 0.01 | > 1 | > 1 | < 0.01 | – | – | COC(=O)N1CCc2cccc(N3CCCc4cc(-c5cnn(C)c5)c(C(F)F)cc43)c2C1 [Compound M001202]
10 | > 0.01 | < 1 | < 1 | – | – | – | CC(=O)N1Cc2cc(C3CCNC(=O)C3)cc(N3CCCc4cc(-c5cnn(C)c5)c(C(F)F)cc43)c2C1 (stereo not drawn) [Compound M001126]
11 | < 0.01 | < 1 | < 1 | – | – | – | COCCN1CCC(c2cc3c(c(N4CCCc5cc(-c6cnn(C)c6)c(C(F)F)cc54)c2)CN(C(C)=O)C3)CC1=O (stereo not drawn) [Compound M001191]
12 | < 0.01 | > 1 | > 1 | < 0.01 | – | – | CNC(=O)N1CCc2c(c(N3CCCc4cc(-c5cnn(C)c5)c(C(F)F)cc43)nn2C2CCOCC2)C1 [GNE-781]
13 | – | > 1 | > 1 | – | – | – | CCOC(=O)N1CCc2cc(Cl)cc(N3CCCc4cc(-c5cnn(C)c5)c(C(F)F)cc43)c2C1 [Compound M001228]
14 | – | < 1 | > 1 | – | – | – | CNC(=O)N1CCc2cc(C3CCOCC3)cc(N3CCCc4cc(-c5cnn(C)c5)c(C(F)F)cc43)c2C1 [Compound M001184]
15 | – | > 1 | > 1 | – | – | – | CNC(=O)N1CCc2cc(C3CCNC3)cc(N3CCCc4cc(-c5cnn(C)c5)c(C(F)F)cc43)c2C1 (stereo not drawn) [Compound M001050]
16 | < 0.01 | < 1 | < 1 | – | – | – | CC(=O)N1Cc2cc(C3CCN(CC(C)O)C(=O)C3)cc(N3CCCc4cc(-c5cnn(C)c5)c(C(F)F)cc43)c2C1 (stereo not drawn) [Compound M001190]

Row | IC50 [1] [µM] | IC50 ([2]; Homo sapiens, VCaP, 72 h) [µM] | IC50 ([3]; Homo sapiens, 22Rv1, 72 h) [µM] | IC50 [4] [µM] | IC50 [2] [µM] | IC50 [3] [µM] | Structure (SMILES)
17 | – | < 1 | > 1 | – | – | – | CC(=O)N1Cc2cc([C@H]3CC[C@H](O)CC3)cc(N3CCCc4cc(-c5cnn(C)c5)c(C(F)F)cc43)c2C1 [Compound M001194]
18 | – | > 1 | > 1 | – | – | – | CNC(=O)N1Cc2cc(C3=CCN(C(=O)OCc4ccccc4)CC3)cc(N3CCCc4cc(-c5cnn(C)c5)c(C(F)F)cc43)c2C1 [Compound M001096]
19 | – | > 1 | > 1 | – | – | – | CNC(=O)N1Cc2cc(-c3ccn(C)c(=O)c3)cc(N3CCCc4cc(-c5cnn(C)c5)c(C(F)F)cc43)c2C1 [Compound M001122]
20 | – | < 1 | < 1 | – | – | – | CCN1CC(c2cc3c(c(N4CCCc5cc(-c6cnn(C)c6)c(C(F)F)cc54)c2)CN(C(=O)NC)CC3)CCC1=O (stereo not drawn) [Compound M001221]
21 | – | – | – | – | > 1 | > 1 | COC(=O)N1Cc2cc(C3CCC(OC)CC3)cc(N3CCCc4cc(-c5cnn(C)c5)c(C(F)F)cc43)c2C1 (stereo not drawn) [Compound M001204]
22 | – | > 1 | > 1 | – | – | – | CNC(=O)N1CCc2cc(C3CCN(CC(F)(F)F)CC3)cc(N3CCCc4cc(-c5cnn(C)c5)c(C(F)F)cc43)c2C1 [Compound M001060]
23 | – | < 1 | > 1 | – | – | – | CNC(=O)N1Cc2cc(C3CCN(C(C)=O)CC3)cc(N3CCCc4cc(-c5cnn(C)c5)c(C(F)F)cc43)c2C1 [Compound M001161]
24 | – | < 1 | < 1 | – | – | – | CC(=O)N1Cc2cc(C3CCN(C)C(=O)C3)cc(N3CCCc4cc(-c5cnn(C)c5)c(C(F)F)cc43)c2C1 (stereo not drawn) [Compound M001127]
25 | – | > 1 | > 1 | – | – | – | CNC(=O)N1CCc2cc(C3CCN(CC#N)CC3)cc(N3CCCc4cc(-c5cnn(C)c5)c(C(F)F)cc43)c2C1 [Compound M001070]
26 | – | > 1 | > 1 | – | – | – | CC(=O)N1Cc2cc(C3CCN(C(=O)C(C)O)CC3)cc(N3CCCc4cc(-c5cnn(C)c5)c(C(F)F)cc43)c2C1 (stereo not drawn) [Compound M001073]
27 | – | < 1 | < 1 | – | – | – | CCN1CCC(c2cc3c(c(N4CCCc5cc(-c6cnn(C)c6)c(C(F)F)cc54)c2)CN(C(C)=O)C3)CC1=O (stereo not drawn) [Compound M001189]
28 | – | > 1 | > 1 | – | – | – | CC(=O)N1CCc2cc(C3CCN(C)C(=O)C3)cc(N3CCCc4cc(-c5cnn(C)c5)c(C(F)F)cc43)c2C1 (stereo not drawn) [Compound M001143]
29 | – | < 1 | < 1 | – | – | – | CNC(=O)N1CCc2cc(C3CCN(S(=O)(=O)C4CC4)CC3)cc(N3CCCc4cc(-c5cnn(C)c5)c(C(F)F)cc43)c2C1 [Compound M001307]
30 | – | > 1 | > 1 | – | – | – | CNC(=O)N1CCc2cc(C3CCN(C(=O)C4CN(C)C4)CC3)cc(N3CCCc4cc(-c5cnn(C)c5)c(C(F)F)cc43)c2C1 [Compound M001084]
31 | – | < 1 | < 1 | – | – | – | CC(=O)N1Cc2cc(C3CCN(S(C)(=O)=O)CC3)cc(N3CCCc4cc(-c5cnn(C)c5)c(C(F)F)cc43)c2C1 [Compound M001296]

Row | Structure (SMILES) | IC50 [1] [µM] | IC50 ([2]; Homo sapiens, VCaP, 72 h) [µM] | IC50 ([3]; Homo sapiens, 22Rv1, 72 h) [µM] | IC50 [4] [µM] | IC50 [2] [µM] | IC50 [3] [µM]
32 | CNC(=O)N1Cc2cc(C3=CC4CCC(C3)N4C(=O)OC(C)(C)C)cc(N3CCCc4cc(-c5cnn(C)c5)c(C(F)F)cc43)c2C1 (stereo not drawn) [Compound M001097] | – | > 1 | > 1 | – | – | –
33 | CNC(=O)N1Cc2cc(C3CC4CCC(C3)N4C)cc(N3CCCc4cc(-c5cnn(C)c5)c(C(F)F)cc43)c2C1 (stereo not drawn) [Compound M001092] | – | > 1 | > 1 | – | – | –
34 | CNC(=O)N1Cc2cc(C3=CC4CCC(C3)N4)cc(N3CCCc4cc(-c5cnn(C)c5)c(C(F)F)cc43)c2C1 (stereo not drawn) [Compound M001098] | – | > 1 | > 1 | – | – | –
